Results from patent US20120014911A1, “Regulators of the Interferon-Alpha Receptor 1 (IFNAR1) Chain of the Interferon Receptor” (priority 2009, published 2012).

What was measured:
[1] = test system: vesicular stomatitis virus (VSV); type: cell-based; conditions: human 2fTGH cells, IFN-α 25-100 U/ml, titer 24 hr after treatments
[2] = test system: IFNAR1 Ser535 phosphorylation; assay: IFN-α-induced Ser535 (degron) phosphorylation of IFNAR1 in cells, IP-immunoblot with anti-pS535; type: cell-based, human; conditions: 293T cells, inhibitor pre-treatment, IFN-α
Description: (§1) Immunoprecipitation and immunoblotting procedures are described elsewhere (Fuchs et al, 1999, Oncogene 18:2039-2046). Protein degradation was carried out by cycloheximide (CHX, used at 20 μg/ml) chase. IFNAR1 internalization assay was carried out using the Fluorescence-based assay as described elsewhere (Kumar et al., 2007, J Cell Biol 179:935-950). BAY 43-9006 was obtained as a gift. Recombinant human IFN-a2 (Roferon) was purchased from Roche. Other reagents or inhibitors were purchased from commercial vendors.
(§2) Antibodies against Flag, GST and j3-actin (Sigma), HA (12CA, Roche), CK1α, PICD1/2 (PKCμ), PKD3 (PKCν), Tyk2, intracellular domain of hIFNAR1 and PKR, (Santa Cruz), anti-pan-phospho-tyrosine (4G10), phospho-Stat1 and Stat1 (Cell signaling), phospho-S710 of PKD2 (Biosource), PKD2 (Bethyl Laboratories), mIFNAR1 (Leinco) and ubiquitin (FK2, Biomol) were purchased. AA3, GB8 and EAl2 antibodies which recognize endogenous IFNAR1 (Goldman et al., 1999) and antibodies against IFNAR1 phosphorylated on Ser535 (pS535; (Kumar et al., 2004, J Biol Chem 279:46614-46620)) were described previously. Secondary antibodies conjugated to horseradish peroxidase were purchased from Chemicon and LI-COR. Immunoprecipitation and immunoblotting procedures are described elsewhere (Fuchs et al, 1999, Oncogene 18:2039-2046). Protein degradation was carried out by cycloheximide (CHX) chase in the presence of CHX (20 μg/ml). Immunoblot detection and quantification were carried out using the LI-COR's Odyssey Infrared Imaging System.

[3] = test system: IFNAR1; assay: Cycloheximide chase of IFNAR1 degradation; type: cell-based, human; conditions: HeLa cells, CHX chase in the presence of IFN-α
Description: as §1
as §2, with “Immunoprecipitation and immunoblotting procedures are described elsewhere (Fuchs et al, 1999, Oncogene 18:2039-2046). Protein degradation was carried out by cycloheximide (CHX) chase in the presence of CHX (20 μg/ml).” left out

[4] = test system: Stat1; assay: Stat1 tyrosine phosphorylation in response to IFN-α, immunoblot; type: cell-based, human; conditions: HeLa cells, inhibitor pre-treatment 1 h, IFN-α pulse 15 min
[5] = test system: 2fTGH cells; type: cell-based, human; conditions: inhibitor pre-treatment 1 h, IFN-α pulse 1-2 h, read 24 h later
[6] = test system: protein kinase D (PKD); conditions: literature (Gschwendt et al., 1996; Sharlow et al., 2008); cited from earlier work

| SMILES | protective effect of IFN-α against VSV (viral titer) [1] | ligand-induced Ser535 phosphorylation of endogenous IFNAR1 [2] | rate of proteolytic turnover (ligand-stimulated degradation) of IFNAR1 [3] | ligand-induced phosphorylation of Stat1 [4] | ISRE-driven luciferase transcriptional activity [5] | inhibition of / specificity against PKD [6] |
| --- | --- | --- | --- | --- | --- | --- |
| O.O.O.O.O.O.O.O.O.O=C([O-])[C@@H]1[O][Sb](=[O])([O][Sb]2(=[O])[O][C@H]([C@H](O)CO)[C@H](O)[C@H](C(=O)[O-])[O]2)[O][C@H]([C@H](O)CO)[C@@H]1O.[Na+].[Na+].[Na+] (stereo partly drawn) [SSG] | potentiates the protective effect | – | – | – | – | – |
| O=C1NCCCc2c1oc1ccc(O)cc21 [CID755673] | – | significant inhibition | appreciable decrease | noticeably prolonged | robustly augmented | high specificity |
